Measured values published in the NIST ThermoML archive (doi:10.1021/je800981d).
Values joined by “and” are separate entries in the source; they are usually repeats but may differ in a detail not shown here. Equal values may be shown once. Numbers after ± are expanded uncertainties.

Experiments:
[1] = refractive index (Na D-line) (dimensionless); xn = mol fraction of the nth substance listed; details: 298.15 K, 101 kPa, Liquid, Standard Abbe refractometry
[2] = xn = mol fraction of the nth substance listed; details: 101 kPa, Liquid
[3] = Liquid
[4] = refractive index (Na D-line) (dimensionless); details: 101.33 kPa, Liquid, Standard Abbe refractometry

CCOS(=O)(=O)[O-].CC[n+]1ccccc1 [1-ethylpyridinium ethyl sulfate] + CCCO
[1]
Details | refractive index
x2 = 0 | 1.50525 ± 0.0007
x2 = 0.0814 | 1.50137 ± 0.0007
x2 = 0.1994 | 1.49499 ± 0.0007
x2 = 0.3084 | 1.48804 ± 0.00069
x2 = 0.4035 | 1.48081 ± 0.00069
x2 = 0.5077 | 1.47142 ± 0.00069
x2 = 0.6013 | 1.46126 ± 0.00068
x2 = 0.7016 | 1.44802 ± 0.00068
x2 = 0.8004 | 1.43181 ± 0.00068
x2 = 0.9002 | 1.411 ± 0.00068
x2 = 0.9521 | 1.39773 ± 0.00068

[2]
Details | mass density, 298.15 K [kg/m3] | mass density, 313.15 K [kg/m3] | mass density, 328.15 K [kg/m3] | speed of sound, 298.15 K [m/s] | speed of sound, 313.15 K [m/s] | speed of sound, 328.15 K [m/s] | viscosity, 298.15 K [mPa·s] | viscosity, 313.15 K [mPa·s] | viscosity, 328.15 K [mPa·s]
x2 = 0 | 1252 ± 1.1 | 1242.1 ± 1.1 | 1232.3 ± 1 | 1711 ± 3 | 1676 ± 3 | 1641 ± 3 | 126.3 ± 8 | 57.6 ± 0.7 | 38.6 ± 0.73
x2 = 0.0814 | 1237.2 ± 1 | 1227.4 ± 1 | 1217.6 ± 1 | 1689 ± 3 | 1654 ± 3 | 1619 ± 3 | 95.2 ± 4.2 | 48 ± 0.8 | 32.49 ± 0.65
x2 = 0.1994 | 1212.7 ± 0.9 | 1202.7 ± 0.9 | 1192.7 ± 0.8 | 1649 ± 3 | 1613 ± 3 | 1578 ± 3 | 62.7 ± 1 | 34.23 ± 0.67 | 23.31 ± 0.55
x2 = 0.3084 | 1186.1 ± 0.8 | 1176.1 ± 0.7 | 1165.9 ± 0.7 | 1608 ± 3 | 1572 ± 3 | 1537 ± 3 | 43.6 ± 0.8 | 25.21 ± 0.56 | 17.27 ± 0.49
x2 = 0.4035 | 1159 ± 0.7 | 1148.5 ± 0.7 | 1138.3 ± 0.6 | 1565 ± 3 | 1528 ± 3 | 1493 ± 3 | 30.03 ± 0.61 | 18.31 ± 0.5 | 12.21 ± 0.45
x2 = 0.5077 | 1123.8 ± 0.6 | 1113 ± 0.6 | 1102.6 ± 0.5 | 1516 ± 3 | 1478 ± 3 | 1440 ± 3 | 20.12 ± 0.51 | 12.91 ± 0.45 | 8.898 ± 0.43
x2 = 0.6013 | 1085.8 ± 0.5 | 1074.8 ± 0.5 | 1064.2 ± 0.4 | 1466 ± 3 | 1427 ± 3 | 1388 ± 3 | 13.68 ± 0.46 | 9.161 ± 0.43 | 6.523 ± 0.42
x2 = 0.7016 | 1036.7 ± 0.4 | 1025.2 ± 0.4 | 1014.3 ± 0.4 | 1409 ± 3 | 1367 ± 3 | 1327 ± 3 | 8.84 ± 0.43 | 6.131 ± 0.42 | 4.494 ± 0.41
x2 = 0.8004 | 976.9 ± 0.3 | 965.3 ± 0.4 | 954.1 ± 0.4 | 1347 ± 3 | 1304 ± 3 | 1262 ± 3 | 5.597 ± 0.41 | 3.988 ± 0.41 | 2.977 ± 0.4
x2 = 0.9002 | 900.6 ± 0.4 | 888.9 ± 0.5 | 877.1 ± 0.5 | 1279 ± 3 | 1234 ± 3 | 1189 ± 3 | 3.483 ± 0.41 | 2.507 ± 0.4 | 1.874 ± 0.4
x2 = 0.9521 | 852.4 ± 0.5 | 840.3 ± 0.6 | 828.1 ± 0.6 | 1244 ± 3 | 1195 ± 3 | 1147 ± 3 | 2.676 ± 0.4 | 1.921 ± 0.4 | 1.411 ± 0.4

CCCO [propan-1-ol] + CCOS(=O)(=O)[O-].CC[n+]1ccccc1
Details | refractive index
[1], x1 = 1 | 1.3831 ± 0.00068

[2], x1 = 1
Details | mass density [kg/m3] | speed of sound [m/s] | viscosity [mPa·s]
298.15 K | 799.6 ± 0.7 | 1207 ± 3 | 2.017 ± 0.4
313.15 K | 787.4 ± 0.7 | 1155 ± 3 | 1.43 ± 0.4
328.15 K | 774.8 ± 0.7 | 1105 ± 3 | 1.041 ± 0.4

CCO [ethanol]
[3], 101 kPa
Details | mass density [kg/m3] | speed of sound [m/s] | viscosity [mPa·s]
298.15 K | 785.5 ± 0.7 | 1146 ± 3 | 1.082 ± 0.4
313.15 K | 772 ± 0.7 | 1093 ± 3 | 0.827 ± 0.4
328.15 K | 758.6 ± 0.8 | 1043 ± 3 | 0.641

Details | refractive index
[4], 298.15 K | 1.36023 ± 0.00068

CCOS(=O)(=O)[O-].CC[n+]1ccccc1 [1-ethylpyridinium ethyl sulfate]
[3]
Details | mass density, 101.33 kPa [kg/m3] | speed of sound, 101.33 kPa [m/s] | viscosity, 101 kPa [mPa·s] | viscosity, 101.33 kPa [mPa·s]
298.15 K | 1252 ± 1.1 | 1711 ± 3 | – | 126.3 ± 8
303.15 K | 1248.7 ± 1.1 | 1699 ± 3 | – | 93 ± 4
308.15 K | 1245.4 ± 1.1 | 1687 ± 3 | – | 72.1 ± 1.9
313.15 K | 1242.1 ± 1.1 | 1676 ± 3 | – | 57.6 ± 0.7
318.15 K | 1238.8 ± 1.1 | 1664 ± 3 | – | 46.4 ± 0.8
323.15 K | 1235.6 ± 1.1 | 1653 ± 3 | – | 38.6 ± 0.73
328.15 K | 1232.3 ± 1 | 1641 ± 3 | 38.6 ± 0.73 | 32.53 ± 0.65
333.15 K | 1229.1 ± 1 | 1630 ± 3 | – | 27.78 ± 0.6
338.15 K | 1225.9 ± 1 | 1619 ± 3 | – | 23.9 ± 0.56
343.15 K | 1222.7 ± 1 | 1608 ± 3 | – | 20.71 ± 0.52

[4]
Details | refractive index
298.15 K | 1.50525 ± 0.00045 and 1.50252 ± 0.0007
303.15 K | 1.50394 ± 0.00046
308.15 K | 1.50258 ± 0.00046
313.15 K | 1.5012 ± 0.00046
318.15 K | 1.49976 ± 0.00046
323.15 K | 1.4985 ± 0.00045
328.15 K | 1.4972 ± 0.00045
333.15 K | 1.49587 ± 0.00045
338.15 K | 1.49454 ± 0.00046
343.15 K | 1.49309 ± 0.00047

CCO [ethanol] + CCOS(=O)(=O)[O-].CC[n+]1ccccc1
Details | refractive index
[1], x1 = 1 | 1.36023 ± 0.00068

[2], x1 = 1
Details | mass density [kg/m3] | speed of sound [m/s] | viscosity [mPa·s]
298.15 K | 785.5 ± 0.7 | 1146 ± 3 | 1.082 ± 0.4
313.15 K | 772 ± 0.7 | 1093 ± 3 | 0.827 ± 0.4
328.15 K | 758.6 ± 0.8 | 1043 ± 3 | 0.641

CCCO [propan-1-ol]
[3], 101 kPa
Details | mass density [kg/m3] | speed of sound [m/s] | viscosity [mPa·s]
298.15 K | 799.6 ± 0.7 | 1207 ± 3 | 2.017 ± 0.4
313.15 K | 787.4 ± 0.7 | 1155 ± 3 | 1.43 ± 0.4
328.15 K | 774.8 ± 0.7 | 1105 ± 3 | 1.041 ± 0.4

Details | refractive index
[4], 298.15 K | 1.3831 ± 0.00068

CCOS(=O)(=O)[O-].CC[n+]1ccccc1 [1-ethylpyridinium ethyl sulfate] + CCO
[1]
Details | refractive index
x2 = 0 | 1.50252 ± 0.0007
x2 = 0.0476 | 1.50313 ± 0.0007
x2 = 0.1993 | 1.49585 ± 0.0007
x2 = 0.2992 | 1.48987 ± 0.00069
x2 = 0.5009 | 1.47321 ± 0.00069
x2 = 0.6033 | 1.46152 ± 0.00069
x2 = 0.7023 | 1.44693 ± 0.00068
x2 = 0.8016 | 1.42734 ± 0.00068
x2 = 0.899 | 1.40078 ± 0.00068
x2 = 0.9476 | 1.38342 ± 0.00068

[2]
Details | mass density, 298.15 K [kg/m3] | mass density, 313.15 K [kg/m3] | mass density, 328.15 K [kg/m3] | speed of sound, 298.15 K [m/s] | speed of sound, 313.15 K [m/s] | speed of sound, 328.15 K [m/s] | viscosity, 298.15 K [mPa·s] | viscosity, 313.15 K [mPa·s] | viscosity, 328.15 K [mPa·s]
x2 = 0 | 1252 ± 1.1 | 1242.1 ± 1.1 | 1232.3 ± 1 | 1711 ± 3 | 1676 ± 3 | 1641 ± 3 | 126.3 ± 8 | 57.6 ± 0.7 | 38.6 ± 0.73
x2 = 0.0476 | 1245.3 ± 1 | 1235.3 ± 1 | 1225.3 ± 1 | 1700 ± 3 | 1665 ± 3 | 1631 ± 3 | 103.3 ± 5.2 | 50.3 ± 0.5 | 34.14 ± 0.67
x2 = 0.1993 | 1220.8 ± 0.9 | 1210.8 ± 0.9 | 1200.7 ± 0.9 | 1661 ± 3 | 1625 ± 3 | 1591 ± 3 | 58.4 ± 0.7 | 33.9 ± 0.66 | 22.38 ± 0.54
x2 = 0.2992 | 1201.2 ± 0.8 | 1190.9 ± 0.8 | 1180.7 ± 0.8 | 1630 ± 3 | 1593 ± 3 | 1558 ± 3 | 40.3 ± 0.7 | 23.51 ± 0.55 | 15.2 ± 0.47
x2 = 0.5009 | 1147.2 ± 0.6 | 1136.4 ± 0.6 | 1125.9 ± 0.6 | 1546 ± 3 | 1508 ± 3 | 1472 ± 3 | 17.27 ± 0.49 | 11.39 ± 0.44 | 8.015 ± 0.42
x2 = 0.6033 | 1109.2 ± 0.5 | 1098.4 ± 0.5 | 1087.7 ± 0.5 | 1491 ± 3 | 1453 ± 3 | 1388 ± 40 | 10.79 ± 0.44 | 7.07 ± 0.42 | 5.198 ± 0.41
x2 = 0.7023 | 1062 ± 0.4 | 1051 ± 0.4 | 1039.9 ± 0.4 | 1428 ± 3 | 1388 ± 3 | 1350 ± 3 | 6.63 ± 0.42 | 4.8 ± 0.41 | 3.642 ± 0.41
x2 = 0.8016 | 999.9 ± 0.3 | 988.1 ± 0.3 | 976.6 ± 0.4 | 1349 ± 3 | 1308 ± 3 | 1267 ± 3 | 3.947 ± 0.41 | 2.943 ± 0.4 | 2.287 ± 0.4
x2 = 0.899 | 915.5 ± 0.4 | 903.3 ± 0.5 | 890.1 ± 0.5 | 1258 ± 3 | 1214 ± 3 | 1170 ± 3 | 2.244 ± 0.4 | 1.717 ± 0.4 | 1.344 ± 0.4
x2 = 0.9476 | 860.1 ± 0.5 | 847.5 ± 0.6 | 834.1 ± 0.6 | 1206 ± 3 | 1160 ± 3 | 1113 ± 3 | 1.641 ± 0.4 | 1.261 ± 0.4 | 0.987 ± 0.4
